# Experimental data: DBAASP
# Experiments:
# Assay in all cases: ≥ marks a high value that may be exact or a test limit, other limits are often not marked, values filed in µg/mL are converted to µM
# [1] = test system: Bacillus subtilis ATCC 23857
# [2] = test system: Escherichia coli ATCC 25922
# [3] = test system: Candida albicans ATCC 90028
# [4] = test system: Pseudomonas aeruginosa ATCC 9027
# [5] = test system: Staphylococcus aureus USA 100
# [6] = test system: Staphylococcus aureus USA 300
# Escherichia coli = test system: Escherichia coli
# [7] = test system: Klebsiella pneumoniae ATCC 700603
# [8] = test system: Staphylococcus aureus ATCC 25923
# Escherichia coli JW0013 = test system: Escherichia coli JW0013
# Micrococcus luteus = test system: Micrococcus luteus
# [9] = test system: Pseudomonas aeruginosa ATCC 15692
# Saccharomyces cerevisiae = test system: Saccharomyces cerevisiae
# [10] = test system: Micrococcus luteus ATCC 4698
smiles,measurement,setting,value
CC[C@H](C)[C@H](NC(=O)CN)C(=O)N[C@H](C(=O)N[C@@H](CCCN=C(N)N)C(=O)NCC(=O)N[C@H](C(=O)N[C@H](C(=O)N[C@@H](CCCCN)C(=O)N[C@H](C(=O)N[C@H](C(=O)N[C@@H](CCCCN)C(=O)N[C@@H](CCCN=C(N)N)C(N)=O)[C@@H](C)CC)[C@@H](C)CC)[C@@H](C)CC)[C@@H](C)CC)[C@@H](C)CC [GIIRGIIKIIKR],MIC,[1],8 µM
same,MIC,[2],64 µM
NCCCC[C@H](NC(=O)[C@H](Cc1c[nH]c2ccccc12)NC(=O)[C@H](CCCCN)NC(=O)[C@H](Cc1c[nH]c2ccccc12)NC(=O)[C@@H](N)CCCCN)C(=O)N[C@@H](Cc1c[nH]c2ccccc12)C(=O)O [KWKWKW],MIC,[3],≥ 100 µM
same,MIC,[4],> 100 µM
same,MIC,[5],≥ 100 µM
same,MIC,[6],≥ 100 µM
CC[C@H](C)[C@H](NC(=O)[C@H](CCCCN)NC(=O)[C@H](CCCCN)NC(=O)[C@H](C)NC(=O)[C@@H](NC(=O)[C@H](C)NC(=O)[C@H](CC(C)C)NC(=O)[C@H](CC(C)C)NC(=O)[C@H](CCCCN)NC(=O)[C@H](CCCCN)NC(=O)[C@H](CC(C)C)NC(=O)[C@H](CC(N)=O)NC(=O)CN)C(C)C)C(=O)N[C@@H](CC(C)C)C(N)=O [GNLKKLLAVAKKIL],MIC,[1],4 µM
same,MIC,Escherichia coli,4 µM
same,MIC,[7],16 µM
same,MIC,[8],16 µM
CC[C@H](C)[C@H](NC(=O)[C@H](CCCN=C(N)N)NC(=O)[C@H](CCCN=C(N)N)NC(=O)[C@@H]1CCCN1C(=O)[C@@H]1CCCN1C(=O)[C@H](CCCN=C(N)N)NC(=O)[C@@H]1CCCN1C(=O)[C@H](CCCN=C(N)N)NC(=O)[C@@H]1CCCN1C(=O)[C@H](CC(C)C)NC(=O)[C@H](Cc1c[nH]c2ccccc12)NC(=O)[C@@H]1CCCN1C(=O)[C@@H]1CCCN1C(=O)[C@H](CCCCN)NC(=O)[C@H](CC(=O)O)NC(=O)[C@@H](N)C(C)C)C(=O)N[C@@H](Cc1ccc(O)cc1)C(=O)N[C@@H](CC(N)=O)C(=O)N[C@@H](CCCN=C(N)N)C(N)=O [VDKPPWLPRPRPPRRIYNR],MIC,Escherichia coli JW0013,1.99 µM
NC(=O)[C@H](CCCN=C(N)N)NC(=O)[C@H](CCCN=C(N)N)NC(=O)[C@H](CCCN=C(N)N)NC(=O)[C@@H](N)CCCN=C(N)N [RRRR],MIC,[5],≥ 100 µM
CC[C@H](C)[C@H](NC(=O)[C@H](CO)NC(=O)[C@H](CO)NC(=O)[C@H](C)NC(=O)[C@H](Cc1c[nH]c2ccccc12)NC(=O)CN)C(=O)NCC(=O)N[C@@H](CO)C(=O)N[C@H](C(=O)N[C@@H](CC(C)C)C(=O)NCC(=O)N[C@@H](CCCCN)C(=O)N[C@@H](Cc1ccccc1)C(=O)N[C@@H](C)C(=O)N[C@@H](CCCCN)C(=O)NCC(=O)NCC(=O)N[C@@H](C)C(=O)N[C@@H](CCC(N)=O)C(=O)N[C@@H](C)C(=O)N[C@@H](Cc1ccccc1)C(=O)N[C@@H](CC(C)C)C(=O)N[C@@H](CCC(N)=O)C(=O)N1CCC[C@H]1C(=O)N[C@@H](CCCCN)C(=O)O)[C@@H](C)CC [GWASSIGSILGKFAKGGAQAFLQPK],MIC,[2],32 µM
same,MIC,Micrococcus luteus,0.5 µM
same,MIC,[9],≥ 128 µM
same,MIC,Saccharomyces cerevisiae,≥ 64 µM
same,MIC,[8],> 256 µM
CC[C@H](C)[C@H](NC(=O)[C@H](CCCN=C(N)N)NC(=O)[C@H](CCCN=C(N)N)NC(=O)[C@@H]1CCCN1C(=O)[C@@H]1CCCN1C(=O)[C@H](CCCN=C(N)N)NC(=O)[C@H](CCCN=C(N)N)NC(=O)[C@H](CCCN=C(N)N)NC(=O)[C@@H]1CCCN1C(=O)[C@H](CC(C)C)NC(=O)[C@H](Cc1ccc(O)cc1)NC(=O)[C@@H]1CCCN1C(=O)[C@H](CCCCN)NC(=O)[C@H](CCCCN)NC(=O)[C@H](CC(=O)O)NC(=O)[C@@H](N)C(C)C)C(=O)N[C@@H](Cc1ccc(O)cc1)C(=O)N[C@@H](CC(N)=O)C(=O)N[C@@H](CCCN=C(N)N)C(N)=O [VDKKPYLPRRRPPRRIYNR],MIC,Escherichia coli JW0013,0.685 µM
CC(C)C[C@H](NC(=O)[C@H](C)NC(=O)[C@H](CCCCN)NC(=O)[C@H](CC(C)C)NC(=O)[C@H](CC(N)=O)NC(=O)[C@@H](N)CC(C)C)C(=O)N[C@@H](CC(C)C)C(=O)N[C@@H](C)C(=O)N[C@H](C(=O)N[C@@H](C)C(=O)N[C@@H](CCCCN)C(=O)N[C@@H](CCCCN)C(N)=O)C(C)C [LNLKALLAVAKK],MIC,[1],≥ 128 µM
same,MIC,[2],> 128 µM
same,MIC,[7],> 128 µM
same,MIC,[4],> 128 µM
same,MIC,[8],> 128 µM
CC[C@H](C)[C@H](NC(=O)[C@H](CCCCN)NC(=O)[C@H](CCCCN)NC(=O)[C@H](C)NC(=O)[C@H](C)NC(=O)[C@H](C)NC(=O)[C@H](CC(C)C)NC(=O)[C@H](CC(C)C)NC(=O)[C@H](C)NC(=O)[C@H](CCCCN)NC(=O)[C@H](CC(C)C)NC(=O)[C@H](CC(N)=O)NC(=O)[C@@H](N)CC(C)C)C(=O)N[C@@H](CC(C)C)C(N)=O [LNLKALLAAAKKIL],MIC,[1],8 µM
same,MIC,[2],8 µM
same,MIC,[7],16 µM
same,MIC,[4],16 µM
same,MIC,[8],16 µM
CC(C)C[C@H](NC(=O)[C@H](CCCN=C(N)N)NC(=O)[C@@H](N)CC(C)C)C(=O)N[C@@H](CCCN=C(N)N)C(N)=O [LRLR],MIC,[5],≥ 100 µM
CC[C@H](C)[C@H](NC(=O)[C@H](CCCN=C(N)N)NC(=O)[C@H](CCCN=C(N)N)NC(=O)[C@@H]1CCCN1C(=O)[C@@H]1CCCN1C(=O)[C@H](CCCN=C(N)N)NC(=O)[C@@H]1CCCN1C(=O)[C@H](CCCN=C(N)N)NC(=O)[C@@H]1CCCN1C(=O)[C@H](CCCCN)NC(=O)[C@H](CCCN=C(N)N)NC(=O)[C@@H]1CCCN1C(=O)[C@H](CCCCN)NC(=O)[C@H](CCCCN)NC(=O)[C@H](CC(=O)O)NC(=O)[C@@H](N)C(C)C)C(=O)N[C@@H](Cc1ccc(O)cc1)C(=O)N[C@@H](CC(N)=O)C(=O)N[C@@H](CCCN=C(N)N)C(N)=O [VDKKPRKPRPRPPRRIYNR],MIC,Escherichia coli JW0013,1.36 µM
CC[C@H](C)[C@H](NC(=O)[C@H](CCCN=C(N)N)NC(=O)[C@H](CCCN=C(N)N)NC(=O)[C@@H]1CCCN1C(=O)[C@@H]1CCCN1C(=O)[C@H](CCCN=C(N)N)NC(=O)[C@H](CCCCN)NC(=O)[C@H](CCCN=C(N)N)NC(=O)[C@@H]1CCCN1C(=O)[C@H](CCCCN)NC(=O)[C@H](Cc1ccc(O)cc1)NC(=O)[C@@H]1CCCN1C(=O)[C@H](CCCCN)NC(=O)[C@H](CCCCN)NC(=O)[C@H](CC(=O)O)NC(=O)[C@@H](N)C(C)C)C(=O)N[C@@H](Cc1ccc(O)cc1)C(=O)N[C@@H](CC(N)=O)C(=O)N[C@@H](CCCN=C(N)N)C(N)=O [VDKKPYKPRKRPPRRIYNR],MIC,Escherichia coli JW0013,0.973 µM
NCCCC[C@@H]1NC(=O)[C@H](CCCN=C(N)N)NC(=O)[C@H](CCCCN)NC(=O)[C@H](Cc2c[nH]c3ccccc23)NC(=O)[C@H](CCCCN)NC(=O)[C@H](CCCCN)NC(=O)[C@@H](N)CSSC[C@@H](C(=O)O)NC(=O)[C@H](CCCN=C(N)N)NC1=O [CKKWKRKRC],MIC,[10],0.6 µM
CC[C@H](C)[C@H](NC(=O)CN)C(=O)N[C@H](C(=O)N[C@@H](C)C(=O)NCC(=O)N[C@H](C(=O)N[C@H](C(=O)N[C@@H](C)C(=O)N[C@@H](CCCCN)C(=O)N[C@H](C(=O)N[C@@H](CCCCN)C(=O)N[C@@H](CCCCN)C(N)=O)[C@@H](C)CC)[C@@H](C)CC)[C@@H](C)CC)[C@@H](C)CC [GIIAGIIAKIKK],MIC,[1],≥ 32 µM
same,MIC,[2],> 128 µM
NC(=O)[C@H](CCCN=C(N)N)NC(=O)[C@H](CCC(=O)O)NC(=O)[C@H](CCCN=C(N)N)NC(=O)[C@@H](N)CCC(=O)O [ERER],MIC,[5],≥ 100 µM
CC[C@H](C)[C@H](NC(=O)[C@H](CCCN=C(N)N)NC(=O)[C@H](CCCN=C(N)N)NC(=O)[C@@H]1CCCN1C(=O)[C@@H]1CCCN1C(=O)[C@H](CCCN=C(N)N)NC(=O)[C@@H]1CCCN1C(=O)[C@H](CCCN=C(N)N)NC(=O)[C@@H]1CCCN1C(=O)[C@H](CC(C)C)NC(=O)[C@H](Cc1ccc(O)cc1)NC(=O)[C@H](Cc1cnc[nH]1)NC(=O)[C@H](CCCCN)NC(=O)[C@H](CCCCN)NC(=O)[C@H](CC(=O)O)NC(=O)[C@@H](N)C(C)C)C(=O)N[C@@H](Cc1ccc(O)cc1)C(=O)N[C@@H](CC(N)=O)C(=O)N[C@@H](CCCN=C(N)N)C(N)=O [VDKKHYLPRPRPPRRIYNR],MIC,Escherichia coli JW0013,0.975 µM
